Measurements from patent publication US12097177B2, “Therapeutic method for cat with chronic kidney disease” (Toray Industries, Inc., priority 2021, dated 2024).

Legend:
[1] = system: cats with naturally occurring CKD; conditions: cited from earlier work
[2] = system: kidney of rat progressive glomerulonephritis; conditions: in vivo; cited from earlier work
[3] = system: cats with CKD; experiment: Retrospective observation study: period before progression into IRIS stage 4, BPS therapy vs No BPS therapy (Kaplan-Meier); assay type: in vivo, cat; conditions: for 3-year stage progression-free rate: cats with CKD, twice daily
Procedure: To compare the periods before progression of feline CKD into stage 4 with BPS therapy and without BPS therapy, the following retrospective observation studies were performed. The studies were performed at Ichikawa General Hospital, Kariya Animal Hospital, Inc., that had adopted the electronic chart system for veterinary hospitals, Ahmics (trademark) (PetCommunications Co., Ltd.), and completely eliminated the use of paper charts before 2017. In this hospital, all-encompassing information concerning medical treatment such as test data, death records, and drug prescription records of all patient animals have been managed by the electronic chart system. Specifically, the data sets of 1,681 cats subjected to the serum creatinine test and the data sets of 1,399 cats subjected to the urinalysis from Apr. 1, 2017 to Dec. 10, 2020 were extracted. Among them, by excluding 951 cats without records, the data sets of 730 cats that were diagnosed to have CKD as a result of serum creatinine tests at least two times, urinalysis, and other clinical tests were extracted.
Based on the drug prescription records, cats were divided into two groups: a BPS therapy group consisting of 57 cats; and a BPS therapy-free group consisting of 77 cats, and the baseline characteristics and the periods before progression into stage 4 were compared and analyzed retrospectively. To the cats in the BPS therapy group, BPS drugs for veterinary use, RAPROS (trademark) (Toray Industries, Inc.), were administered while adjusting the amount of BPS to 14.1 to 52.4 μg/kg body weight/day and the median to 29.1 μg/kg body weight/day twice daily during or after morning and evening feeding occasions. […] Progression into stage 4 was examined by the method defined by the IRIS staging. Specifically, progression into stage 4 was determined based on serum creatinine or serum SDMA measured to be higher than 5.0 mg/dL or higher than 38 μg/dL, respectively, via two or more hospital visits. By designating progression into stage 4 as the outcome, the start date of treatment as the point of origin for the cats in the BPS therapy group, and the start date of observation as the point of origin for the cats in the No BPS therapy group, the periods (months) before the outcome was observed were recorded. In analysis, the 3-year stage progression-free rates (%) of the BPS therapy group and of the No BPS therapy group, the standard errors thereof, the 95% confidence intervals, and the comparison of the 3-year stage progression-free rates (%) between the groups were calculated. […] The average period (months) before progression into stage 4, the standard error thereof, the 95% confidence intervals, the medians and the standard errors thereof, the 95% confidence intervals, and the comparison of the average stage progression-free periods were calculated. Differences in the stage progression-free rates were assessed by the log rank test, the Cochran-Mantel-Haenszel test, by setting significant level at a two-tailed P-value of <0.05.
Based on the drug prescription records, cats were divided into two groups: a BPS therapy group consisting of 37 cats; and a BPS therapy-free group consisting of 332 cats, and the baseline characteristics and the periods before progression into stage 4 were compared and analyzed retrospectively. To the cats in the BPS therapy group, BPS drugs for veterinary use, RAPROS (trademark) (Toray Industries, Inc.), were administered while adjusting the amount of BPS to 18.5 to 42.3 μg/kg body weight/day and the median to 26.5 μg/kg body weight/day twice daily during or after morning and evening feeding occasions. Progression into stage 4 was examined by the method defined by the IRIS staging. Specifically, progression into stage 4 was determined based on serum creatinine or serum SDMA measured to be higher than 5.0 mg/dL or higher than 38 μg/dL, respectively, via two or more hospital visits. […]

[4] = system: cats with CKD; experiment: Retrospective observation study: survival period / overall survival rate (all-cause death), BPS therapy vs No BPS therapy; assay type: in vivo, cat; conditions: for average survival period / median survival period: Kaplan-Meier
Procedure: Based on the drug prescription records, cats were divided into two groups: a BPS therapy group consisting of 17 cats; and a BPS therapy-free group consisting of 67 cats, and baseline characteristics and the survival periods were compared and analyzed retrospectively. To the cats in the BPS therapy group, BPS drugs for veterinary use, RAPROS (trademark) (Toray Industries, Inc.), were administered while adjusting the amount of BPS to 20.0 to 49.1 μg/kg body weight/day and the median to 31.4 μg/kg body weight/day twice daily during or after morning and evening feeding occasions. By designating all-cause death as the outcome, the start date of treatment as the point of origin for the cats in the BPS therapy group, and the start date of observation as the point of origin for the cats in the No BPS therapy group based on the death records, the periods (months) before the outcome was observed were recorded. In analysis, the 2-year overall survival rates (%) of the BPS therapy group and of the No BPS therapy group, the standard errors thereof, the 95% confidence intervals, and the comparison of the 2-year overall survival rates (%) between the groups were calculated. […] Differences in the overall survival rates were assessed by the log rank test, the Cochran-Mantel-Haenszel test, by setting significant level at a two-tailed P-value of <0.05. […]
From among the cats with CKD, the data sets of […] having body weight of less than 3.5 kg were extracted, and the cats were divided into two groups: a BPS therapy group consisting of 19 cats; and a BPS therapy-free group consisting of 40 cats. In the same manner as described above, the 3-year overall survival rates (%) and the average survival periods were compared between the groups.

[5] = 55 μg or 6 to 26.4 μg/kg, preferably twice daily for 30 days or longer (WO '949)
[6] = stage 2 (serum creatinine 1.6 to 2.8 mg/dL)
[7] = stage 3 (serum creatinine 2.9 to 5.0 mg/dL)
[8] = stage 3 (serum creatinine 2.9 to 5.0 mg/dL), Kaplan-Meier
[9] = cats with CKD having body weight of less than 3.5 kg
[10] = stage 3 and body weight of less than 4.2 kg

SMILES: CC#CCC(C)[C@H](O)/C=C/[C@@H]1[C@H]2c3cccc(CCCC(=O)[O-])c3O[C@H]2C[C@H]1O.[Na+] (some centres unmarked) [BPS, Beraprost sodium]
- adverse side effects [1, 5]: without adverse side effects
- kidney function marker values [1, 5]: inhibit elevation in kidney function marker values such as serum creatinine and BUN
- tolerability and safety ([1]; 55 μg twice daily for 6 months): well-tolerated and safe
- serum creatinine ([1]; 55 μg twice daily for 6 months, vs placebo): inhibited serum creatinine elevation observed in the placebo group
- pharmacological activity on renal microvascular network [2]: improving microvascular network failure of kidney tissue
- 3-year stage progression-free rate ([3]; serum creatinine 1.6 to 2.8 mg/dL (stage 2), BPS 18.5 to 42.3 μg/kg body weight/day): 74.7%
- 3-year stage progression-free rate ([3]; serum creatinine 2.9 to 5.0 mg/dL (stage 3), BPS 14.1 to 52.4 μg/kg body weight/day): 32.7%
- 3-year stage progression-free rate of BPS therapy group relative to No BPS therapy group [3, 6]: 0.83 times
- average stage progression-free period of BPS therapy group relative to No BPS therapy group [3, 6]: 0.93 times
- effect on progression into stage 4 ([3]; stage 2 (serum creatinine 1.6 to 2.8 mg/dL) before initiation of administration): no effects of BPS administration to inhibit progression into stage 4 were observed
- average period before progression into stage 4 ([3]; stage 2 (serum creatinine 1.6 to 2.8 mg/dL), Kaplan-Meier): 38.0 months
- 3-year stage progression-free rate of BPS therapy group relative to No BPS therapy group [3, 7]: 1.25 times
- average stage progression-free period of BPS therapy group relative to No BPS therapy group [3, 7]: 1.49 times
- effect on progression into stage 4 ([3]; stage 3 (serum creatinine 2.9 to 5.0 mg/dL) before initiation of administration): effects of BPS administration to inhibit progression into stage 4 were observed
- average period before progression into stage 4 [3, 8]: 26.5 months
- median period before progression into stage 4 [3, 8]: 31.6 months
- 3-year overall survival rate of BPS therapy group relative to No BPS therapy group [4, 9]: 2.90 times
- average survival period of BPS therapy group relative to No BPS therapy group [4, 9]: 1.66 times
- 3-year overall survival rate ([4]; cats with CKD, serum creatinine 1.6 to 2.8 mg/dL (stage 2)): 52.2%
- 3-year overall survival rate ([4]; cats with CKD, serum creatinine 2.9 to 5.0 mg/dL (stage 3)): 33.5%
- 2-year overall survival rate ([4]; cats with CKD, serum creatinine higher than 5.0 mg/dL (stage 4), BPS 20.0 to 49.1 μg/kg body weight/day, twice daily): 25.9%
- 3-year overall survival rate of BPS therapy group relative to No BPS therapy group ([4]; stage 2): 0.72 times
- average survival period of BPS therapy group relative to No BPS therapy group ([4]; stage 2): 0.90 times
- average survival period ([4]; stage 2): 31.5 months
- effect on overall survival rate or observed survival rate ([4]; stage 2 before initiation of administration): no effects of BPS administration to improve the overall survival rate or the observed survival rate were observed
- average survival period of BPS therapy group relative to No BPS therapy group ([4]; stage 3): 1.54 times
- 3-year overall survival rate of BPS therapy group relative to No BPS therapy group ([4]; stage 3 (Example 4)): 1.85 times
- 3-year overall survival rate ([4]; stage 3 (serum creatinine 2.9 to 5.0 mg/dL) and body weight of less than 4.2 kg): 28.0%
- average survival period ([4]; stage 3): 25.3 months
- median survival period ([4]; stage 3): 23.4 months
- average survival period of BPS therapy group relative to No BPS therapy group [4, 10]: 1.54 times
- 3-year overall survival rate of BPS therapy group relative to No BPS therapy group ([4]; stage 3 and body weight of less than 4.2 kg (Example 6)): 2.77 times
- effect on overall survival rate or observed survival rate ([4]; stage 3 and body weight of less than 4.2 kg before initiation of administration): effects of BPS administration to improve the overall survival rate or the observed survival rate were observed
- average survival period [4, 10]: 22.4 months
- median survival period [4, 10]: 19.8 months
- effect on overall survival rate or observed survival rate ([4]; stage 3 before initiation of administration): effects of BPS administration to improve the overall survival rate or the observed survival rate were observed
- 2-year overall survival rate of BPS therapy group relative to No BPS therapy group ([4]; stage 4): 4.80 times
- average survival period of BPS therapy group relative to No BPS therapy group ([4]; stage 4): 2.43 times
- average survival period ([4]; stage 4): 14.1 months
- median survival period ([4]; stage 4): 10.2 months
- effect on overall survival rate or observed survival rate ([4]; stage 4 before initiation of administration): effects of BPS administration to improve the overall survival rate or the observed survival rate were observed
